This passage reports IC50 results from patent US20250145625A1, “PYRAZOLOPYRIMIDINE DERIVATIVE AND ANTICANCER PHARMACEUTICAL COMPOSITION CONTAINING SAME AS ACTIVE INGREDIENT” (KOREA RESEARCH INSTITUTE OF CHEMICAL TECHNOLOGY, priority 2021, published 2025).

pIC50: −log10 of the molar value.

Assay [1] deals with MDA-MB-231 triple negative breast cancer cell line. The assay is described as follows: Cytotoxicity in TTK-expressed MDA-MB-231 cells. Format: cell-based. The following applies: Homo sapiens, MDA-MB-231, 120 h, 5 days. As for the experimental part:
To determine the cytotoxicity of a compound represented by Chemical Formula 1 according to the present invention to MDA-MB-231 cells, the following test was conducted.
MDA-MB-231 triple negative breast cancer cell line purchased from ATCC was inoculated into each well of a 96-well plate at a volume of 90 μL containing 2,000 cells. Thereafter, an example compound of the present invention was added to respective wells at concentrations of 10 μM, 3 μM, 1 μM, 0.3 μM, 0.1 μM, and 0 μM, and the cells were cultured in a cell incubator at 37° C. for 5 days. Five days later, 10 μL of Cyto X solution (manufacturer: LPS Solution) was added to each of the wells, and the absorbance was measured at 450 nm using an Epoch microplate spectrophotometer (manufacturer: BioTek Instruments Inc.) according to the product's user guide. For cytotoxicity, the IC50 value for cytotoxicity of each compound was calculated by quantifying the number of cells using the measured value.

For assay [2], the system named is HCT116 colon cancer cell line. The assay is described as follows: Cytotoxicity in TTK-expressed HCT116 cells. Format: cell-based. To be noted: Homo sapiens, HCT-116, 120 h, 5 days. As for the experimental part: To determine the cytotoxicity of a compound represented by Chemical Formula 1 according to the present invention to HCT116 cells, the following test was conducted.
HCT116 colon cancer cell line purchased from ATCC was inoculated into each well of a 96-well plate at a volume of 90 μL containing 2,000 cells. Thereafter, an example compound of the present invention was added to respective wells at concentrations of […], 3 μM, 1 μM, 0.3 μM, 0.1 μM, and 0 μM, and the cells were cultured in a cell incubator at 37° C. for 5 days. After 5 days, the number of cells was measured by CCK8 test method, and the cytotoxicity was determined by calculating the IC50 value for cytotoxicity of each compound.

The target of assay [3] is recombinant human TTK protein (Homo sapiens (Human), UniProt P33981). The assay is described as follows: Evaluation of TTK activity inhibitory ability (scintillation counting).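 Further: reaction stopped with 0.5% phosphoric acid, spotted on P30 filter, TTK activity counted by scintillation, uninhibited no-compound wells taken as 100% control.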 To be noted: TTK inhibitory activity; read-out: IC50. It is filed as biochemical.
Sequence of recombinant human TTK protein (P33981 whole entry): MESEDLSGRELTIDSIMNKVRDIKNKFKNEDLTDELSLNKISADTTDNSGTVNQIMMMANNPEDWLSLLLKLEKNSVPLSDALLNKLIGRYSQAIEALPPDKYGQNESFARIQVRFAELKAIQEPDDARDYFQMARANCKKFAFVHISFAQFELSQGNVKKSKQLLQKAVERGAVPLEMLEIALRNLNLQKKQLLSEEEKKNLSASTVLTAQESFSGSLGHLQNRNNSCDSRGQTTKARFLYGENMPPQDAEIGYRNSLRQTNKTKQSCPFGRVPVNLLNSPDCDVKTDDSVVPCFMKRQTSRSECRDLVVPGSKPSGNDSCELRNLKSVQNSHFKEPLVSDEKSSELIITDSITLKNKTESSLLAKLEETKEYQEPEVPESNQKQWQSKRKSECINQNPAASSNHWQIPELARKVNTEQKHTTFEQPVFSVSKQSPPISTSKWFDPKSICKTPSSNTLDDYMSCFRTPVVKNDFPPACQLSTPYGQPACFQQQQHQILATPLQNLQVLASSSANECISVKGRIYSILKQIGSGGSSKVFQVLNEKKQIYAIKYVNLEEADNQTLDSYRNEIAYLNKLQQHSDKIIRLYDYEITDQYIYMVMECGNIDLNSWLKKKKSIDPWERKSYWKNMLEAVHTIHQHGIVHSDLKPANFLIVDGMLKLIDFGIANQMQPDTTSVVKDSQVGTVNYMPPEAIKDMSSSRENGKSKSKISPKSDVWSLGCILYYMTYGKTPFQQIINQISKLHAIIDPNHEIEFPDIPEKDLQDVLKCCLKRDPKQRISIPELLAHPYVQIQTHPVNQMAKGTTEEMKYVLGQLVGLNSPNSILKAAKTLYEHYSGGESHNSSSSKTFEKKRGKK
Protocol: To determine the ability of a compound represented by Chemical Formula 1 according to the present invention to inhibit TTK activity, the following experiment was conducted.
After that, the reaction was terminated by adding phosphoric acid to a concentration of 0.5%, and 10 of the reaction solution was dropped onto a P30 filter. […] The activity of TTK was measured through scintillation counting. The activity value from the group with no compound was set as 100% of control, and the degree of TTK inhibition by the compound was calculated.

In the case of `COc1cc(N2CCOCC2)ccc1Nc1nc(NC2CCCCC2)c2c(-c3cccc(C(N)=O)c3)n[nH]c2n1` [Compound 8-2, 3-(4-(Cyclohexylamino)-6-((2-methoxy-4-morpholinophenyl)amino)-1H-pyrazolo[3,4-d]pyrimidin-3-yl)benzamide], the IC50 in assay [1] and in assay [2] was over 1000 nM each time.
As for `COc1cc(N2CCOCC2)ccc1Nc1nc(NC2CCCCC2)c2c(-c3cccc(NC(=O)C4CC4)c3)n[nH]c2n1` [Compound 8-4, N-(3-(4-(cyclohexylamino)-6-((2-methoxy-4-morpholinophenyl)amino)-1H-pyrazolo[3,4-d]pyrimidin-3-yl)phenyl)cyclopropanecarboxamide], the IC50 was 500 to 1000 nM in assay [1] and over 1000 nM in assay [2].
For `CNC(=O)c1cccc(-c2n[nH]c3nc(Nc4ccc(N5CCOCC5)cc4OC)nc(NC4CCCCC4)c23)c1` [Compound 8-5, 3-(4-(cyclohexylamino)-6-((2-methoxy-4-morpholinophenyl)amino)-1H-pyrazolo[3,4-d]pyrimidin-3-yl)-N-methylbenzamide], in that order: over 1000 nM and over 1000 nM.
Take `COc1cc(N2CCOCC2)ccc1Nc1nc(NC2CCCCC2)c2c(-c3cccc(NS(C)(=O)=O)c3)n[nH]c2n1` [Compound 8-6, N-(3-(4-(cyclohexylamino)-6-((2-methoxy-4-morpholinophenyl)amino)-1H-pyrazolo[3,4-d]pyrimidin-3-yl)phenyl)methanesulfonamide]: the pIC50 in assay [3] was 7.00 to 7.52. Moreover, the IC50 in assay [1] and in assay [2] was over 1000 nM each time.
As to `COc1cc(N2CCOCC2)ccc1Nc1nc(NC2CCCCC2)c2c(-c3cnn(C)c3)n[nH]c2n1` [Compound 8-7, N^4-cyclohexyl-N^6-(2-methoxy-4-morpholinophenyl)-3-(1-methyl-1H-pyrazol-4-yl)-1H-pyrazolo[3,4-d]pyrimidine-4,6-diamine], the pIC50 in assay [3] was 6.52 to 7.00. For the same compound, the results for the IC50 in assay [1] and in assay [2] were 150 to 500 nM and 500 to 1000 nM, respectively.
`COc1cc(N2CCOCC2)ccc1Nc1nc(NC2CCCCC2)c2c(-c3cnn(C(F)F)c3)n[nH]c2n1` [Compound 8-12, N^4-cyclohexyl-3-(1-(difluoromethyl)-1H-pyrazol-4-yl)-N^6-(2-methoxy-4-morpholinophenyl)-1H-pyrazolo[3,4-d]pyrimidine-4,6-diamine]: the pIC50 in assay [3] is 7.00 to 7.52. In addition, the IC50 in assay [1] and in assay [2] was 150 to 500 nM throughout.
With `COc1cc(N2CCOCC2)ccc1Nc1nc(NC2CCCCC2)c2c(-c3ccn(C)n3)n[nH]c2n1` [Compound 8-13, N^4-cyclohexyl-N^6-(2-methoxy-4-morpholinophenyl)-3-(1-methyl-1H-pyrazol-3-yl)-1H-pyrazolo[3,4-d]pyrimidine-4,6-diamine], the pIC50 in assay [3] is over 7.52. Also, the IC50 in assay [1] and in assay [2] was 500 to 1000 nM each time.
On to `COc1cc(N2CCOCC2)ccc1Nc1nc(NC2CCCCC2)c2c(-c3ccco3)n[nH]c2n1` [Compound 8-14, N^4-cyclohexyl-3-(furan-2-yl)-N^6-(2-methoxy-4-morpholinophenyl)-1H-pyrazolo[3,4-d]pyrimidine-4,6-diamine], for which the pIC50 in assay [3] was 7.00 to 7.52. Further, the IC50 in assay [1] and in assay [2] was 150 to 500 nM in each case.
As to `COc1cc(N2CCOCC2)ccc1Nc1nc(NC2CCCCC2)c2c(-c3cncs3)n[nH]c2n1` [Compound 8-15, N^4-cyclohexyl-N^6-(2-methoxy-4-morpholinophenyl)-3-(thiazol-5-yl)-1H-pyrazolo[3,4-d]pyrimidine-4,6-diamine], the pIC50 in assay [3] is over 7.52. Besides, the IC50 in assay [1] and in assay [2] was 150 to 500 nM throughout.
Regarding `COc1cc(N2CCOCC2)ccc1Nc1nc(NC2CCCCC2)c2c(-c3ccc4[nH]cnc4c3)n[nH]c2n1` [Compound 8-16, 3-(1H-benzo[d]imidazol-5-yl)-N^4-cyclohexyl-N^6-(2-methoxy-4-morpholinophenyl)-1H-pyrazolo[3,4-d]pyrimidine-4,6-diamine], the pIC50 in assay [3] is 7.00 to 7.52. In addition, the results for the IC50 in assay [1] and in assay [2] were 500 to 1000 nM and under 150 nM, respectively.
For `COc1cc(N2CCOCC2)ccc1Nc1nc(NC2CCCCC2)c2c(-c3ccc4[nH]ncc4c3)n[nH]c2n1` [Compound 8-17, N^4-cyclohexyl-3-(1H-indazol-5-yl)-N^6-(2-methoxy-4-morpholinophenyl)-1H-pyrazolo[3,4-d]pyrimidine-4,6-diamine], the IC50 in assay [1] and in assay [2] was 500 to 1000 nM throughout.
Regarding `COc1cc(N2CCOCC2)ccc1Nc1nc(NC2CCCCC2)c2c(-c3ccc4nc(C)oc4c3)n[nH]c2n1` [Compound 8-18, N^4-cyclohexyl-N^6-(2-methoxy-4-morpholinophenyl)-3-(2-methylbenzooxazol-6-yl)-1H-pyrazolo[3,4-d]pyrimidine-4,6-diamine], the pIC50 in assay [3] is 7.00 to 7.52. Also, the IC50 is 150 to 500 nM in assay [1] and under 150 nM in assay [2].
The like results for `COc1cc(N2CCOCC2)ccc1Nc1nc(NC2CCCCC2)c2c(-c3cn(C)cn3)n[nH]c2n1` [Compound 8-19, N^4-cyclohexyl-N^6-(2-methoxy-4-morpholinophenyl)-3-(1-methyl-1H-imidazol-4-yl)-1H-pyrazolo[3,4-d]pyrimidine-4,6-diamine] were, in that order, 7.00 to 7.52, 150 to 500 nM and 500 to 1000 nM.
The like results for `COc1cc(N2CCOCC2)ccc1Nc1nc(NC2CCCCC2)c2c(-c3cnoc3)n[nH]c2n1` [Compound 8-20, N^4-cyclohexyl-3-(isoxazol-4-yl)-N^6-(2-methoxy-4-morpholinophenyl)-1H-pyrazolo[3,4-d]pyrimidine-4,6-diamine] were, in that order, over 7.52, under 150 nM and under 150 nM.
Turning to `COc1cc(N2CCOCC2)ccc1Nc1nc(NC2CCOCC2)c2c(-c3cnoc3)n[nH]c2n1` [Compound 8-21, 3-(Isoxazol-4-yl)-N^6-(2-methoxy-4-morpholinophenyl)-N^4-(tetrahydro-2H-pyran-4-yl)-1H-pyrazolo[3,4-d]pyrimidine-4,6-diamine], the pIC50 in assay [3] is 7.00 to 7.52. In addition, the IC50 in assay [1] and in assay [2] was 500 to 1000 nM in each case.
Turning to `COc1cc(N2CCOCC2)ccc1Nc1nc(NC2CCOCC2)c2c(-c3ncco3)n[nH]c2n1` [Compound 8-22, N^6-(2-methoxy-4-morpholinophenyl)-3-(oxazol-2-yl)-N^4-(tetrahydro-2H-pyran-4-yl)-1H-pyrazolo[3,4-d]pyrimidine-4,6-diamine], in assay [3], the pIC50 was over 7.52. Besides, the IC50 was 500 to 1000 nM in assay [1] and under 150 nM in assay [2].
Regarding `COc1cc(N2CCOCC2)ccc1Nc1nc(NC2CCOCC2)c2c(-c3cnn(C)c3)n[nH]c2n1` [Compound 8-23, N^6-(2-methoxy-4-morpholinophenyl)-3-(1-methyl-1H-pyrazol-4-yl)-N^4-(tetrahydro-2H-pyran-4-yl)-1H-pyrazolo[3,4-d]pyrimidine-4,6-diamine], the pIC50 in assay [3] was over 7.52. Besides, the IC50 lay within 500 to 1000 nM in assay [1] and 150 to 500 nM in assay [2].
With `COc1cc(N2CCOCC2)ccc1Nc1nc(NC2CCOCC2)c2c(-c3cnn(C(F)F)c3)n[nH]c2n1` [Compound 8-24, 3-(1-(difluoromethyl)-1H-pyrazol-4-yl)-N^6-(2-methoxy-4-morpholinophenyl)-N^4-(tetrahydro-2H-pyran-4-yl)-1H-pyrazolo[3,4-d]pyrimidine-4,6-diamine], the pIC50 in assay [3] was over 7.52. Besides, the IC50 in assay [1] and in assay [2] was 150 to 500 nM throughout.
As for `COc1cc(N2CCOCC2)ccc1Nc1nc(NC2CCOCC2)c2c(-c3ccn(C)n3)n[nH]c2n1` [Compound 8-25, N^6-(2-methoxy-4-morpholinophenyl)-3-(1-methyl-1H-pyrazol-3-yl)-N^4-(tetrahydro-2H-pyran-4-yl)-1H-pyrazolo[3,4-d]pyrimidine-4,6-diamine], in assay [3], the pIC50 is over 7.52. The IC50 in assay [1] and in assay [2] was 150 to 500 nM each time.
Regarding `COc1cc(N2CCOCC2)ccc1Nc1nc(NC2CCOCC2)c2c(-c3cccnc3)n[nH]c2n1` [Compound 8-27, N^6-(2-methoxy-4-morpholinophenyl)-3-(pyridin-3-yl)-N^4-(tetrahydro-2H-pyran-4-yl)-1H-pyrazolo[3,4-d]pyrimidine-4,6-diamine], the pIC50 in assay [3] is over 7.52. Moreover, the IC50 in assay [1] and in assay [2] was 500 to 1000 nM throughout.
Consider `Cn1cc(-c2n[nH]c3nc(NC4CCC(N5CCOCC5)CC4)nc(NC4CCCCC4)c23)cn1` (stereo not shown) [Compound 8-30, N^4-cyclohexyl-3-(1-methyl-1H-pyrazol-4-yl)-N^6-(4-morpholinocyclohexyl)-1H-pyrazolo[3,4-d]pyrimidine-4,6-diamine], for which the pIC50 in assay [3] is 6.52 to 7.00. The compound further showed an IC50 in assay [1] of over 1000 nM.

What is called IC50 is the concentration needed to halve the response being measured. Higher therefore signals a need for much substance. The pIC50 is −log10 of the IC50, conventionally taken in molar units.
